Reference: patent US20240083900A1, “PYRAZOLO[1,5-A]PYRAZINE DERIVATIVES AS BTK INHIBITORS” (BIOGEN MA INC., priority 2020, published 2024)
Like-named read-outs stand apart in the source and are kept apart here.

What was measured:
BTK = BTK (Homo sapiens (Human), UniProt Q06187); experiment: In Vitro BTK Kinase Assay: Btk-PolyGAT-LS Assay; type: biochemical; conditions: BTK enzyme 0.25 nM, ATP 10 μM, polyGAT 100 nM, 30 minutes incubation, TRF readout; read-out: IC50
Outline: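 Human BTK activity was measured with final 10 μM ATP and 100 nM polyGAT substrate in pH 7.5 Tris buffer with 10 mM MgCl2, DTT, Triton X-100 and casein.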

[1] = system: CD69 expression on CD19+ B cells in human whole blood stimulated with anti-human IgD; experiment: In Vitro whole blood CD69 Assay; type: cell-based
[2] = Homo sapiens, B-cell, human heparinized whole blood, anti-human IgD stimulation overnight, percentage of CD19+ B cells expressing CD69, flow cytometry, read-out: IC50

Chain of BTK (Q06187 whole entry): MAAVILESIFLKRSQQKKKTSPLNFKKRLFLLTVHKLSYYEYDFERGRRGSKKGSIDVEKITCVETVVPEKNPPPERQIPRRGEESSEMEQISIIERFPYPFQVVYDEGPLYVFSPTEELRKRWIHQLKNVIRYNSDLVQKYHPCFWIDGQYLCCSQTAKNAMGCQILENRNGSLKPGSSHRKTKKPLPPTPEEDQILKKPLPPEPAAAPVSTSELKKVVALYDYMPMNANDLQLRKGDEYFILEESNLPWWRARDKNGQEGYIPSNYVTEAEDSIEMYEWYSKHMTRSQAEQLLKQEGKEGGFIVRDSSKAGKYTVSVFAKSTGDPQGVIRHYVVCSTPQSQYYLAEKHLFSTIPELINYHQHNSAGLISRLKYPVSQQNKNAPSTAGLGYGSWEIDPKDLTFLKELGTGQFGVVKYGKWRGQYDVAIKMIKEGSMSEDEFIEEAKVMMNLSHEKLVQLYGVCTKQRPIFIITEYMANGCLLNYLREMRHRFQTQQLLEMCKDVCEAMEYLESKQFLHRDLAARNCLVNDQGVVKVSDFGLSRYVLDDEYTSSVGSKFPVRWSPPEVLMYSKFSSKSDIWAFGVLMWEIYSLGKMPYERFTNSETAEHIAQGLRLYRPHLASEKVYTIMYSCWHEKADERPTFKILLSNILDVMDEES

| IC50 [1, 2] | Compound | also measured |
| --- | --- | --- |
| < 1000 nM | C=CC(=O)N1C[C@@H]2[C@@H](COc3nc(-c4cnn(C)c4)cn4nccc34)[C@@H]2C1 [Example 214, 1-((1R,5S,6r)-6-(((6-(1-methyl-1H-pyrazol-4-yl)pyrazolo[1,5-a]pyrazin-4-yl)oxy)methyl)-3-azabicyclo[3.1.0]hexan-3-yl)prop-2-en-1-one] | – |
| 1000 to 10000 nM | C=CC(=O)N1C[C@@H]2[C@H](COc3nc(-c4cnn(C)c4)cn4nccc34)[C@@H]2C1 [Example 221, 1-((1R,5S,6s)-6-(((6-(1-methyl-1H-pyrazol-4-yl)pyrazolo[1,5-a]pyrazin-4-yl)oxy)methyl)-3-azabicyclo[3.1.0]hexan-3-yl)prop-2-en-1-one] | – |
| 1000 to 10000 nM | C=CC(=O)N1CC[C@H]2[C@@H]1C[C@@]2(C)Oc1nc(-c2cnn(C)c2)cn2nccc12 [Example 191, 1-((1S,5S,6R)-6-methyl-6-((6-(1-methyl-1H-pyrazol-4-yl)pyrazolo[1,5-a]pyrazin-4-yl)oxy)-2-azabicyclo[3.2.0]heptan-2-yl)prop-2-en-1-one] | – |
| – | C=CC(=O)N(C)[C@H]1C[C@@](C)(Oc2nc(-c3cnn(C)c3)cc3nccn23)C1 [Example 236, N-methyl-N-((1s,3s)-3-methyl-3-((7-(1-methyl-1H-pyrazol-4-yl)imidazo[1,2-c]pyrimidin-5-yl)oxy)cyclobutyl)acrylamide] | IC50 ([1]; Homo sapiens, B-cell): < 1000 nM |
| < 1000 nM | C=CC(=O)N(C)[C@H]1CC[C@@H](Oc2nc(-c3cnn(C)c3)cn3nccc23)C1 [Example 145, N-methyl-N-((1S,3R)-3-((6-(1-methyl-1H-pyrazol-4-yl)pyrazolo[1,5-a]pyrazin-4-yl)oxy)cyclopentyl)acrylamide] | – |
| – | C=CC(=O)N(C)[C@H]1C[C@](C)(Oc2nc(-c3cnn(C)c3)cn3nccc23)C1 [Example 217, N-methyl-N-((1r,3r)-3-methyl-3-((6-(1-methyl-1H-pyrazol-4-yl)pyrazolo[1,5-a]pyrazin-4-yl)oxy)cyclobutyl)acrylamide] | IC50 ([1]; Homo sapiens, B-cell): 1000 to 10000 nM |
| < 1000 nM | C=CC(=O)N1CCC[C@@H](Oc2nc(-c3cnn(C)c3)cn3nccc23)CC1 [Example 29, (R)-1-(4-((6-(1-methyl-1H-pyrazol-4-yl)pyrazolo[1,5-a]pyrazin-4-yl)oxy)azepan-1-yl)prop-2-en-1-one] | – |
| < 1000 nM | C=CC(=O)N(C)[C@@H]1CC[C@H](Oc2nc(-c3cnn(C)c3)cn3nccc23)C1 (relative stereo) [Example 143, N-methyl-N-((cis)-3-((6-(1-methyl-1H-pyrazol-4-yl)pyrazolo[1,5-a]pyrazin-4-yl)oxy)cyclopentyl)acrylamide] | – |
| 1000 to 10000 nM | C=CC(=O)N(C)[C@H]1C[C@H](Oc2nc(-c3cnn(C)c3)cn3nccc23)C1 [Example 185, N-methyl-N-((trans)-3-((6-(1-methyl-1H-pyrazol-4-yl)pyrazolo[1,5-a]pyrazin-4-yl)oxy)cyclobutyl)acrylamide] | – |
| < 1000 nM | C=CC(=O)N(C)C12CCCC(Oc3nc(-c4cnn(C)c4)cn4nccc34)(C1)C2 [Example 225, N-methyl-N-(5-((6-(1-methyl-1H-pyrazol-4-yl)pyrazolo[1,5-a]pyrazin-4-yl)oxy)bicyclo[3.1.1]heptan-1-yl)acrylamide] | – |
| 1000 to 10000 nM | C=CC(=O)N(C)[C@H]1C[C@@H](Oc2nc(-c3cnn(C)c3)cn3nccc23)C1 [Example 215, N-methyl-N-((cis)-3-((6-(1-methyl-1H-pyrazol-4-yl)pyrazolo[1,5-a]pyrazin-4-yl)oxy)cyclobutyl)acrylamide] | – |
| 1000 to 10000 nM | Cn1cc(-c2cn3nccc3c(OC3CCN(C(=O)/C=C\CCl)CC3)n2)cn1 [Example 8, (Z)-4-chloro-1-(4-((6-(1-methyl-1H-pyrazol-4-yl)pyrazolo[1,5-a]pyrazin-4-yl)oxy)piperidin-1-yl)but-2-en-1-one] | – |
| < 1000 nM | C=CC(=O)N1C[C@H]2C[C@@H](Oc3nc(-c4cnn(C)c4)cn4nccc34)C[C@@H]1C2 [Example 167, 1-((1R,3R,5S)-3-((6-(1-methyl-1H-pyrazol-4-yl)pyrazolo[1,5-a]pyrazin-4-yl)oxy)-6-azabicyclo[3.2.1]octan-6-yl)prop-2-en-1-one] | – |
| < 1000 nM | C=CC(=O)N(C)C12CCC(Oc3nc(-c4cnn(C)c4)cn4nccc34)(C1)C2 [Example 99, N-methyl-N-(4-((6-(1-methyl-1H-pyrazol-4-yl)pyrazolo[1,5-a]pyrazin-4-yl)oxy)bicyclo[2.1.1]hexan-1-yl)acrylamide] | – |
| 1000 to 10000 nM | C=CC(=O)N1C[C@@H]2C[C@@](C)(Oc3nc(-c4cnn(C)c4)cn4nccc34)[C@@H]2C1 [Example 199, 1-((1R,5S,6R)-6-methyl-6-((6-(1-methyl-1H-pyrazol-4-yl)pyrazolo[1,5-a]pyrazin-4-yl)oxy)-3-azabicyclo[3.2.0]heptan-3-yl)prop-2-en-1-one] | – |
| 1000 to 10000 nM | C=CC(=O)N1C[C@@H]2C[C@H](Oc3nc(-c4cnn(C)c4)cn4nccc34)C[C@H]1C2 [Example 168, 1-((1S,3S,5R)-3-((6-(1-methyl-1H-pyrazol-4-yl)pyrazolo[1,5-a]pyrazin-4-yl)oxy)-6-azabicyclo[3.2.1]octan-6-yl)prop-2-en-1-one] | – |
| < 1000 nM | C=CC(=O)N1C[C@H]2C[C@](C)(Oc3nc(-c4cnn(C)c4)cn4nccc34)[C@H]2C1 [Example 200, 1-((1S,5R,6S)-6-methyl-6-((6-(1-methyl-1H-pyrazol-4-yl)pyrazolo[1,5-a]pyrazin-4-yl)oxy)-3-azabicyclo[3.2.0]heptan-3-yl)prop-2-en-1-one] | – |
| – | C=CC(=O)N(C)[C@H]1C[C@@](C)(Oc2nc(-c3cnn(C)c3)cn3nccc23)C1 [Example 79, N-methyl-N-((1s,3s)-3-methyl-3-((6-(1-methyl-1H-pyrazol-4-yl)pyrazolo[1,5-a]pyrazin-4-yl)oxy)cyclobutyl)acrylamide] | IC50 ([1]; Homo sapiens, B-cell): < 1000 nM |
| < 1000 nM | C=CC(=O)N1CC[C@@H]2[C@H]1C[C@]2(C)Oc1nc(-c2cnn(C)c2)cn2nccc12 [Example 190, 1-((1R,5R,6S)-6-methyl-6-((6-(1-methyl-1H-pyrazol-4-yl)pyrazolo[1,5-a]pyrazin-4-yl)oxy)-2-azabicyclo[3.2.0]heptan-2-yl)prop-2-en-1-one] | – |
| – | C=CC(=O)N(C)[C@]1(C)C[C@H](Oc2nc(-c3cnn(C)c3)cn3nccc23)C1 [Example 158, Cis N-methyl-N-(1-methyl-3-((6-(1-methyl-1H-pyrazol-4-yl)pyrazolo[1,5-a]pyrazin-4-yl)oxy)cyclobutyl)acrylamide] | IC50 ([1]; human heparinized whole blood, anti-human IgD stimulation overnight, percentage of CD19+ B cells expressing CD69, flow cytometry, read-out: IC50): < 1000 nM |

| Compound | IC50 [1, 2] | also measured |
| --- | --- | --- |
| C=CS(=O)(=O)N1CCC(CNc2nc(-c3cnn(C)c3)cn3nccc23)CC1 [Example 19, 6-(1-methyl-1H-pyrazol-4-yl)-N-((1-(vinylsulfonyl)piperidin-4-yl)methyl)pyrazolo[1,5-a]pyrazin-4-amine] | < 1000 nM | IC50 (BTK): < 1 nM |
| C=CC(=O)N(C)[C@@H]1CC[C@H](Oc2nc(-c3cnn(C)c3)cn3ncc(-c4ccccc4)c23)C1 [Example 173, N-methyl-N-((1R,3S)-3-(6-(1-methylpyrazol-4-yl)-3-phenyl-pyrazolo[1,5-a]pyrazin-4-yl)oxycyclopentyl)prop-2-enamide] | 1000 to 10000 nM | IC50 (BTK): 1 to 10 nM |
| C#CC(=O)N1CCC[C@@H](Oc2nc(-c3cnn(C)c3)cn3nccc23)C1 [Example 7, (R)-1-(3-((6-(1-methyl-1H-pyrazol-4-yl)pyrazolo[1,5-a]pyrazin-4-yl)oxy)piperidin-1-yl)prop-2-yn-1-one] | 1000 to 10000 nM | IC50 (BTK): < 1 nM |
| C=CC(=O)N[C@H]1C[C@@](C)(Oc2nc(-c3cnn(C)c3)cn3ncc(C4CC4)c23)C1 [Example 166, N-((cis)-3-((3-cyclopropyl-6-(1-methyl-1H-pyrazol-4-yl)pyrazolo[1,5-a]pyrazin-4-yl)oxy)-3-methylcyclobutyl)acrylamide] | < 1000 nM | IC50 (BTK): < 1 nM |
| C=CC(=O)N1CCCC(Oc2nc(-c3cnn(C)c3)cn3ncnc23)CC1 (stereo not shown) [Example 57, 1-(4-((6-(1-methyl-1H-pyrazol-4-yl)-[1,2,4]triazolo[1,5-a]pyrazin-8-yl)oxy)azepan-1-yl)prop-2-en-1-one] | 1000 to 10000 nM | IC50 (BTK): 1 to 10 nM |
| C=CC(=O)N[C@H]1C[C@@](C)(Oc2nc(-c3cnn(C)c3)cn3nccc23)C1 [Example 228, N-((1s,3s)-3-methyl-3-((6-(1-methyl-1H-pyrazol-4-yl)pyrazolo[1,5-a]pyrazin-4-yl)oxy)cyclobutyl)acrylamide] | < 1000 nM | IC50 (BTK): < 1 nM |
| C=CC(=O)N(C)[C@H]1CCC[C@@H](Oc2nc(-c3cnn(C)c3)cn3nccc23)C1 [Example 175, N-methyl-N-((1S,3R)-3-((6-(1-methyl-1H-pyrazol-4-yl)pyrazolo[1,5-a]pyrazin-4-yl)oxy)cyclohexyl)acrylamide] | < 1000 nM | – |
| C=CC(=O)N1CCC[C@@H](Oc2nc(-c3cnn(C)c3)cn3nccc23)C1 [Example 4, (R)-1-(3-((6-(1-methyl-1H-pyrazol-4-yl)pyrazolo[1,5-a]pyrazin-4-yl)oxy)piperidin-1-yl)prop-2-en-1-one] | > 10000 nM | – |
| C=CC(=O)N1CC[C@@H](Oc2nc(-c3cnn(C)c3)cn3nccc23)C1 [Example 11, (R)-1-(3-((6-(1-methyl-1H-pyrazol-4-yl)pyrazolo[1,5-a]pyrazin-4-yl)oxy)pyrrolidin-1-yl)prop-2-en-1-one] | > 10000 nM | – |
| C=CC(=O)N1CCC(Oc2nc(-c3cnn(C)c3)cn3nccc23)CC1 [Example 2, 1-(4-((6-(1-methyl-1H-pyrazol-4-yl)pyrazolo[1,5-a]pyrazin-4-yl)oxy)piperidin-1-yl)prop-2-en-1-one] | > 10000 nM | – |
| C=CC(=O)N(C)[C@@H]1CCC[C@H](Oc2nc(-c3cnn(C)c3)cn3nccc23)C1 [Example 176, N-methyl-N—((1R,3S)-3-((6-(1-methyl-1H-pyrazol-4-yl)pyrazolo[1,5-a]pyrazin-4-yl)oxy)cyclohexyl)acrylamide] | 1000 to 10000 nM | – |
